A short description of the data set: GSSG content after autoclaving at F0=8. Format: physicochemical. Particulars: 0.4% histidine in reconstituted BSS PLUS, autoclaved. From the text: The composition of reconstituted BSS PLUS® Sterile Intraocular Irrigating Solution is shown below in Table 1. The reconstituted product was used as a control solution. A sample of the reconstituted product was then spiked with 0.4% histidine to form the experimental solution. The control solution and the experimental solution were then each divided into two replicates each. The pH of one control and one experimental replicate was then adjusted to pH 6.8 and the pH of the other replicate was adjusted to pH 7.4. Both sets of the solutions were then autoclaved at F0=8. After autoclaving, GSSG contents in all the solutions were determined and the results are tabulated in Table 2 as percent GSSG remaining of the label claim in BSS PLUS® Sterile Intraocular Irrigating Solution.
All of the above solutions were autoclaved in the same cycle. However, in this particular experiment, the sterilizer used was not capable of finely regulating F0 and thus significant degradation of GSSG occurred.

The results in this text go back to patent publication US20090264375A1, “INTRAOCULAR IRRIGATING SOLUTIONS AND METHODS FOR TREATING CORNEAL EDEMA” (ALCON RESEARCH, LTD., priority 2007, published 2009).

Regarding `N[C@@H](Cc1c[nH]cn1)C(=O)O` [histidine], the “Effect on GSSG stability in solution” value is recorded as “stabilizes GSSG in solution”.
